Test results reported in publication PMC5065130, “Functional Trade-Offs in Promiscuous Enzymes Cannot Be Explained by Intrinsic Mutational Robustness of the Native Activity” (PLoS Genetics, 2016).

Biological target: T1, wtPTE (Brevundimonas diminuta, UniProt P0A434)
T1 construct: gene opd; synthetic gene in pET-Strep vector, expressed in E. coli BL21 (DE3) with GroEL/ES, ZnCl2 in medium; clarified lysate
Assay: absorbance at […] nm, p-nitrophenolate release, initial rate in clarified lysate
Type: biochemical
Settings: 180 uM substrate; Tris-HCl pH 7.5 lysis buffer, 0.1% Triton X-100; native activity

CCOP(=O)(OCC)Oc1ccc([N+](=O)[O-])cc1 [paraoxon]
absorbance at 405 nm, p-nitrophenolate release, initial rate in clarified lysate: wtPTE catalyzes the hydrolysis of paraoxon (PTE activity).
